A melting point compilation (Tetko et al.; mined from patent text by program, amines drawn as free bases though some values may be those of a salt)

SMILES | melting point
CN1C(=O)[C@H](NC(=O)/C=C/c2ccc(C(F)(F)F)cc2)N=C(c2ccccc2)c2ccccc21 | 133 to 137 °C
C[C@@H](NC(=O)c1cnn(-c2ccc(C(F)(F)F)cc2)c1C(F)(F)F)[C@](O)(Cn1cncn1)c1ccc(F)cc1F | 141 to 143 °C
CC(C)=CCOc1ccc2c(=O)c(C)c(-c3ccccc3)oc2c1C(=O)C=Cc1ccc(Cl)cc1 | 130 to 133 °C
COc1c(Br)cccc1[N+](=O)[O-] | 55 to 56 °C
CCN(CC)c1nc2ccccc2n2c(C)nnc12 | 123 to 125 °C
O=c1[nH]c2ncc(-c3ccc(F)cc3)nc2c(O)c1-c1c(F)cc(F)cc1F | 285 to 288 °C
COc1ccc(-c2cc(=Nc3c(C)cc(C)cc3C)n(C)c(NN)n2)cc1OC | > 300 °C
Nc1ccc2c(ccn2-c2ccncc2)c1 | 149 to 154 °C
N#Cc1cnc2sccc2c1Cl | 100 to 103 °C
OCc1cc(N(c2ccccc2)c2ccccc2)c(CO)cc1N(c1ccccc1)c1ccccc1 | 208 to 210 °C
CNCC1CN(c2c(F)cc3c(=O)c(C(=O)O)cn(-c4ccc(F)cc4F)c3c2F)CCO1 (stereo not given) | 224 to 227 °C
CN(Cc1sc2c(=O)c(C(=O)NCc3ccc(Cl)cc3)cn(C)c2c1COCC[Si](C)(C)C)CC(O)c1ccc(C#N)s1 (stereo not given) | 152 to 154 °C
CCCCCCc1cc2c(cc1CNCC(=O)O)C(=O)CC2 | 70 °C
O=c1oc2ccccc2c(O)c1CCCCC1CCCCC1 | 160 to 161 °C
OC(CSc1ncnc2[nH]ncc12)CN1CCN(C(c2ccc(Cl)cc2)c2ccc(Cl)cc2)CC1 (stereo not given) | 115 to 118 °C
OC(CCCN1CC=C(c2cc(C(F)(F)F)on2)CC1)c1ccc(F)cc1 (stereo not given) | 120 to 122 °C
CCn1c(N)c(-c2ncc[nH]2)c(=O)c2ccc(-c3ccc(C(C)C(=O)NCc4ccncc4)cc3)nc21 (stereo not given) | 186 °C
CCCCc1c2ccccc2cc2ccccc12 | 49 °C
Cc1c(C(=O)OC(C)C)ncc2[nH]c3cccc(Oc4ccc(Cl)cn4)c3c12 | 243 to 245 °C
Cc1ccc(-c2nc(N)nc(N)n2)cn1 | > 260 °C
Cc1nccc2c3ccc(OCc4cccc(F)c4)cc3n(Cc3cccc(F)c3)c12 | 148 °C
NCCc1ccc(C(=O)CCC(=O)O)cc1 | 234 to 235 °C
Fc1ccc(SC(c2cc(F)ccc2F)c2cc(Cl)ncc2Cl)cc1 (stereo not given) | 95 to 97 °C
N#CC1CN1C(=O)CCN1C(=O)c2ccccc2C1=O (stereo not given) | 168 to 170 °C
c1ccc(C2=N[C@@H](c3ccccc3)[C@H](N3CCOCC3)S2)cc1 (relative stereo) | 92 to 94 °C
Cc1c(C(=O)Nc2ccc(N3CCC(N4CCOCC4)CC3)cc2C#N)cnn1-c1ccc(Cl)cc1 | 212 to 213 °C
CNc1c([N+](=O)[O-])c(Br)nn1C | 185 °C

SMILES | melting point
N#CN=c1ccccn1C1=CC(CF)(CF)Oc2ccc(C(F)(F)C(F)(F)F)cc21 | 196 to 198 °C
CCCC1=NN=C2C1=C1C=CC=CN1C(=O)C2C#N (stereo not given) | 298 to 300 °C
COc1cccc([C@H]2O[C@H](CC(=O)Nc3ccc4oc(CCC(=O)O)cc4c3)C(=O)N(CC(C)(C)CO)c3ccc(Cl)cc32)c1OC | 207 to 209 °C
CNc1ccc(-c2cc[nH]n2)cc1 | 78 to 86 °C
CNC(=O)CCCCCCCN(Cc1ccccc1)S(=O)(=O)c1ccc(Cl)c(COc2cccc3ccc(C)nc23)c1Cl | 120 °C
c1ccc(N2CCN(c3nsc4ccccc34)CC2)cc1 | 260 to 262 °C
COc1cc2c(cc1OC)C(=O)C(=NO)C2 | 240 °C
COC(=O)Cc1cc2c(s1)-n1c(C)nnc1C(C)N=C2c1ccccc1Cl (stereo not given) | 105 to 106 °C
CCOC(=O)c1cc2c([nH]1)CN(C(=O)OCC(Cl)(Cl)Cl)CC2 | 126 to 127 °C
CC(Cl)COC(C)c1ccc(O)cc1 (single isomer, unassigned; (+)) | 50 to 51 °C
Oc1ccc2c(c1)Sc1ccccc1CN2 | 172 to 174 °C
COC(=O)c1[nH]c(-c2ccccc2)c(N=Cc2ccccc2)c1C(=O)OC | 218 to 220 °C
CN(C)C1(c2ccc(C(C)(C)C)cc2)CCC(=O)CC1 | 82.5 to 87 °C
CCCCCCCCCCOc1ccc(Cc2cccc(C(=O)O)c2)cc1CCC(=O)O | 146 to 148 °C
CC(C)(CBr)c1cc(Cl)nnc1Cl | 86.5 to 88.5 °C
CN1CC(CCCl)Oc2cc3ccccc3nc2C1=S (stereo not given) | 114 to 116 °C
CNC(=O)c1cc(CN2C(=O)C3(COc4cc5c(cc43)OCO5)c3ccccc32)oc1C(F)(F)F (stereo not given) | 202 to 203 °C
COC(=O)c1ccnc(OCc2nc(-c3ccccc3)oc2C)c1 | 106 to 107 °C
O=C(O)CN1C(=O)C(=Cc2ccc(OCc3cccc(C(F)(F)F)c3)c(OCc3ccccc3)c2)SC1=S | 187 to 194 °C
CCCc1cc(Cl)c(OC(C(=O)O)c2ccccc2)c(C(C)=O)c1O (stereo not given) | 131 to 133 °C
CCOC(=O)c1cnc2onc(C)c2c1O | 150 to 152 °C
CCn1ncc2c(O)c(CCc3ccccc3)c(C(=O)O)nc21 | 250 to 251 °C
COP(=S)(OC)Oc1ncn(-c2ccccn2)n1 | 88 to 91 °C
CC1(C)[C@@H](C=C(F)F)[C@@H]1C(=O)OCc1c(F)c(F)c(F)c(-c2ccccc2)c1F (relative stereo) | 69 to 72 °C
CC(=O)c1oc2ccccc2c1NC(=O)/C(C#N)=C(/C)O | 206 to 208 °C
CN(Cc1ccccc1)Cc1c(-c2ccc(N)cc2)sc2c1c(=O)n(-c1ccccc1)c(=O)n2Cc1c(F)cccc1F | 205 to 207 °C
Cc1cc2c(cc1C)C(=CC#N)OC2=O | 165 to 181 °C

Results, then the compound that gave them:

melting point | SMILES
105 °C | CCCCC(CC)COc1cccc2c1C(=O)c1cccc(OCC(CC)CCCC)c1C2=O (stereo not given)
223 °C | Cc1cc(C(=O)Nc2cc(Oc3ccc4nc(NC(=O)C5CC5)cn4n3)ccc2C)n(C)n1
96 to 97 °C | CCCCCCCCCCCCc1ccc(S(=O)(=O)Nc2nnc(C(=O)OCC)s2)cc1
> 225 °C | CC(C)(C)CC(SC1CCCCC1)c1c(O)cc(-c2ccccc2)oc1=O (stereo not given)
75 to 77 °C | CCOC(=O)c1oc(Oc2ccccc2)nc1C(F)(F)F
83 to 85 °C | COc1ccc2sc(Cc3ccc(Cl)cc3)nc2c1
231 to 233 °C | O=C(O)CCC(=O)N1Cc2c(cc3ccc4c(c3c2-c2ccc3c(c2)OCO3)OCO4)C1=O
143 to 144 °C | CCOC(=O)c1cc(C)cc(-c2ccc(N(C)C)cc2)n1
112 to 115 °C | CC1(C)C2C=CC3(C)C(C2)C(=O)CCC13O (stereo not given)
125 °C | COC(=O)c1cccc2c(Cl)c(OC)ccc12
233 to 234 °C | Cc1nnc(-c2ccc3ncn(C4CCN(S(C)(=O)=O)CC4)c3c2)o1
201 to 203 °C | COc1ccc2[nH]c(COC(C)=O)c(C=O)c2c1[N+](=O)[O-]
140 °C | CC(=O)OC1CSC(Oc2cccc(-c3cnn(C)c3)c2)C(OC(C)=O)C1OC(C)=O (stereo not given)
262 °C | N#Cc1ccc(C(=O)N[C@H]2CC[C@H](CCN3CCN(c4nccc5c4OCC5)CC3)CC2)cc1
169 to 171 °C | Nc1sc2c(c1C(=O)c1ccc3ccccc3c1)CCN(Cc1ccccc1Cl)C2
> 250 °C | Cc1cc(OCCN)ccc1NC(=O)c1ccc(N2CCNCC2)cc1
100 to 124 °C | NC(=O)c1ccc([N+](=O)[O-])c(CN2C(=O)c3ccccc3C2=O)c1
123 to 125 °C | C=CCON1C(=O)c2ccc(Cl)c3c(N4CC[C@H](NC(=O)OC(C)(C)C)C4)cc(Cl)c(c23)C1=O
188 to 189 °C | CN1CCC(=C2c3ccccc3C=Cc3ccc(C(=O)OCN4C(=O)CN(C)C4=O)cc32)CC1
174 to 175 °C | CC1(COc2ccc(S(=O)(=O)C3SC(=O)NC3=O)cc2)CCCCC1 (stereo not given)
190 to 192 °C | COc1cc2c(cc1-c1cccnc1)-c1c(Cl)c3c(n1CC2)C(=O)N(C(C)(C)C)CCCC3

melting point | SMILES
119 to 122 °C | N#Cc1ccc([C@@H]2[C@@H]3C(=O)N(CC4CCCCC4)C(=O)[C@@H]3[C@H]3CCCN32)cc1 (racemic)
100 to 102 °C | CN1CCN2CCNC2(c2ccccc2)c2cc(Cl)ccc21 (stereo not given)
61.9 °C | NC(CO)COc1ccc(Oc2ccccc2)cc1 (stereo not given)
> 250 °C | Cc1cc(-c2ccc(C(F)(F)F)cc2)cc(-c2ccnc(-c3ccc(S(N)(=O)=O)s3)c2)n1
204 to 206 °C | CS(=O)(=O)c1ccc(-n2nc(C(F)F)cc2-c2nc3ccc(F)cc3s2)cc1
205 to 206 °C | COc1ccc(CNC(=O)c2[nH]c3ccc(Cl)cc3c2S(=O)(=O)c2ccccc2)cc1
109 to 111 °C | COc1cc(CCCCCCCC2OC(=O)NC2=O)ccc1OCc1nc(-c2ccccc2)oc1C (stereo not given)
175 to 177 °C | CCOC(=O)c1cn(C2CC2)c2c(C)c(N3CCN(C)CC3)c(F)c(Cl)c2c1=O
167 °C | CCOC(=O)C=Cc1ccc(C=Cc2ccc(Br)cc2)cc1
205 to 206 °C | COc1ccc(S(=O)(=O)Nc2c(/C=C/c3ccncc3)cccc2OC)cc1
255 to 256 °C | O=c1c(C2=Nc3ccccc3S(=O)(=O)N2)c(O)c2ccccc2n1CC1CCCC1
214 to 216 °C | Cc1nc(-n2ccc(OCc3ccc(C(F)(F)F)o3)cc2=O)sc1C(=O)NCc1ccccc1
158 to 159 °C | Cc1c(NC(=O)c2ccc(-c3cccc(F)c3)cc2)ccc2cc(CN3CCCC3)cnc12
142 to 143 °C | COc1cc(CN(C)Cc2ccccc2)ccc1NC(=O)Nc1cnc(C)cn1
165 to 166 °C | CCCCC#CC#CCOc1ccc(C(=O)O)cc1
254 to 256 °C | O=S1(=O)CCN2C=CC=C(c3ccc(OC4CCCC4)cc3)C2=N1
159 °C | Cc1cc(-c2noc(C)c2-c2ccc(S(N)(=O)=O)c(F)c2)ccc1-c1cscn1
135 to 138 °C | Cc1ccc(S(=O)(=O)NN=C2CCCCCCCC2)cc1
54 to 56 °C | Cc1onc(-c2ccccc2)c1-c1ccc(S(C)(=O)=O)cc1
145 to 155 °C | CCC1CN(C2C(=O)N(c3c(Cl)cc(Cl)cc3Cl)N=C2NC(=O)c2cccc(NC(=O)COc3ccc(C(C)(C)CC)cc3C(C)(C)CC)c2)CCC1C (stereo not given)
